Data from patent US8703815B2, “Small molecules that covalently modify transthyretin” (The Scripps Research Institute, priority 2009, dated 2014).

Columns and labels:
Assay type in all cases: binding
[1] = biological target: T1, TTR in human blood plasma (Homo sapiens, UniProt P02766); experiment: Modification of TTR in human blood plasma (immunocapture, RP-HPLC); details: compound 10.8 μM, 24 hours, 37° C.; maximum 50%
T1 construct: RP-HPLC analysis of TTR captured from human plasma; from tissue; host or cells: human blood plasma
Experimental: Compounds 1-4 (10.8 μM) were incubated for 24 hours at 37° C. with human plasma, wherein the TTR concentration is 3.6-5.4 μM.
Furthermore, compound A2 was evaluated to determine its ability to bind selectively to and then react chemoselectively with TTR over the 4000+ other proteins in human blood plasma. Compound A2 (10.8 μM) was incubated with human blood plasma (TTR concentration is 3.6-5.4 μM) for 24 hours at 37° C. before immunoisolating human TTR using a Sepharose® resin-conjugated anti-TTR polyclonal antibody [Purkey et al., Proc. Natl. Acad. Sci. U.S.A. 2001, 98, 5566-5571].
The modification ratio of TTR by kinetic stabilizers in human plasma was evaluated as described [Purkey et al., Proc. Natl. Acad. Sci. U.S.A. 98:5566-5571 (2001)] with minor modifications. Briefly, compounds (7.5 μL of 1.44 mM solution in DMSO) were added to 1 mL of human plasma and incubated at 37° C. for 24 hours on a rocker (30 rpm). A 1:1 (v/v) slurry of unfunctionalized Sepharose® resin in 10 mM Tris, 140 mM NaCl, pH 8.0 (TSA) was added and the solutions were incubated for 1 hour at 4° C. on a rocker plate, followed by brief centrifugation.
Two 400 μL aliquots of the supernatants were added to 300 μL of 1:1 (v:v) slurry of anti-TTR antibody-conjugated Sepharose® resin in TSA. The solutions were gently rocked at 4° C. for 20 minutes (30 rpm), centrifuged, and supernatants were removed. The resin was washed by shaking for 1 minute in 1 mL of TSA solution containing 0.05% saponin (three times) and then 1 mL of TSA solution (twice). The TTR and bound test compound were dissociated from the resin by adding 155 μL of triethylamine (100 mM, pH 11.5) and vortexing for 1 minute. After centrifugation, 135 μL of solution containing test compound and TTR was analyzed by RP-HPLC as described above except that the linear gradients were run from 100:0 to 0:100 A:B for 45 minutes.

WT-TTR = biological target: T2, WT-TTR (Homo sapiens, UniProt P02766); experiment: Fluorimetric assay with recombinant WT-TTR; details: for increase in fluorescence intensity with WT-TTR vs compound alone in buffer: 24 hours
T2 construct: composed of 127-residue β-sheet-rich subunits; made in house; host or cells: E. coli
Experimental: WT-TTR was expressed in an E. coli expression system and purified as described previously. […] The samples were vortexed, and incubated for 18 h at 25° C. […] The excitation slit was set at 5 nm and the emission slit was set at […]. The samples were excited at 328 nm and the emission spectra were collected from 350 to 550 nm. WT-TTR was expressed and purified from an E. coli expression system as described previously. [Lashuel et al., Biochemistry 1999, 38:13560]. […] The samples were vortexed, and incubated for 18 hours at 25° C. […] The excitation slits was set at 5 nm and the emission slits was set at […]. The samples were excited at 328 nm and the emission spectra were collected from 330 to 550 nm (FIG. 4). The time-dependent fluorescence changes were monitored in similar manner (FIG. 5).

K15A-TTR = biological target: T3, K15A-TTR (Homo sapiens, UniProt P02766, K35A); experiment: Fluorimetric assay with recombinant K15A-TTR
T3 construct: composed of 127-residue β-sheet-rich subunits; made in house
Experimental: [The source words this procedure for another variant and says it was used here with some conditions changed.] The excitation spectra are shown with dotted traces (λmax=328 nm), and emission spectra are adjacently (λmax=384 nm). Very low fluorescence resulted from 328 nm excitation of stilbene Compounds 4 or 2 alone in buffer (FIGS. 4A and 4B; traces substantially on the X-axis).
WT-TTR was expressed in an E. coli expression system and purified as described previously. [Lashuel et al., Biochemistry 1999, 38, 13560-13573] The covalent TTR modifiers (A1 or A2) or the non-covalent TTR ligand B2 (5 μL of a 1.44 mM solution in DMSO, final concentration: 7.2 μM) were added to 1 mL of a solution of WT-TTR homotetramer (0.2 mg/mL, 3.6 μM) in 10 mM phosphate, 100 mM KCl and 1 mM EDTA (pH 7.0 phosphate buffer) in a 2 mL Eppendorf tube. The samples were vortexed, and incubated for 18 h at 25° C. The fluorescence changes were monitored using a Varian Cary 50 spectrofluorometer at 20° C. in a 1 cm path length quartz cell. The excitation slit was set at 5 nm and the emission slit was set at […]. The samples were excited at 328 nm and the emission spectra were collected from 350 to 550 nm.
WT-TTR was expressed and purified from an E. coli expression system as described previously. [Lashuel et al., Biochemistry 1999, 38:13560]. The covalent modifiers (Compounds 4 or 2) or the non-covalent TTR ligand Compound B2 (5 μL of a 1.44 mM solution in DMSO) were added to 1 mL of a solution of WT-TTR (0.2 mg/mL, 3.6 μM) in 10 mM phosphate, 100 mM KCl and 1 mM EDTA (pH 7.0) in a 2 mL Eppendorf tube. The samples were vortexed, and incubated for 18 hours at 25° C. The fluorescence changes were monitored using a Varian Cary 50 spectrofluorometer at 20° C. in a 1 cm path length quartz cell. The excitation slits was set at 5 nm and the emission slits was set at […]. The samples were excited at 328 nm and the emission spectra were collected from 330 to 550 nm (FIG. 4). The time-dependent fluorescence changes were monitored in similar manner (FIG. 5).

| SMILES | % Modification of TTR subunits in Human Blood Plasma [1] | fluorescence after incubation with WT-TTR (in words) (WT-TTR; phosphate buffer pH 7, 18 hours) | fluorescence upon binding to K15A-TTR (in words) (K15A-TTR) | increase in fluorescence intensity with WT-TTR vs compound alone in buffer (WT-TTR; WT-TTR […], compound 7.2 μM) | t50 of conjugation to WT-TTR by fluorescence (WT-TTR; WT-TTR […], compound 7.2 μM) [min] |
| --- | --- | --- | --- | --- | --- |
| Cc1cc(/C=C/c2cc(C(=O)Sc3ccc(F)cc3)cc(N(C)C)c2)cc(C)c1O [Compound A2, (E)-S-4-fluorophenyl 3-(dimethylamino)-5-(4-hydroxy-3,5-dimethylstyryl)-benzothioate] | 48% | bright blue fluorescence | no significant fluorescence increase | – | – |
| Cc1cc(/C=C/c2cccc(C(=O)Oc3ccc(F)cc3)c2)cc(C)c1O [Compound 4, (E)-4-fluorophenyl 3-(4-hydroxy-3,5-dimethylstyryl)benzoate] | – | – | remain non-fluorescent | about 560 fold | – |
| Cc1cc(/C=C/c2cccc(C(=O)Sc3ccccc3)c2)cc(C)c1O [Compound 2, (E)-S-phenyl 3-(4-hydroxy-3,5-dimethylstyryl)benzothioate] | 48% (±1.3%) | – | remain non-fluorescent | about 1100 fold | 22 |
